Among the data in the NIST ThermoML archive (doi:10.1016/j.jct.2015.02.024) are activity coefficient values, retold here.

Numbers after ± are expanded uncertainties.

This series can be described thus: activity coefficient (dimensionless); of the first substance listed, at infinite dilution; xn = mol fraction of the nth substance listed. The settings on record: 101 kPa, Liquid, Chromatography, x1 = 0.

In the case of `Cc1ccccc1C` [1,2-dimethylbenzene] + C[N+]1(CCCO)CCOCC1.O=S(=O)([N-]S(=O)(=O)C(F)(F)F)C(F)(F)F, the activity coefficient was 5.73 ± 0.39 (318.15 K); 5.76 ± 0.39 (328.15 K); 5.78 ± 0.39 (338.15 K); 5.81 ± 0.4 (348.15 K); 5.83 ± 0.4 (358.15 K); 5.86 ± 0.4 (368.15 K).

Take `Cc1cccc(C)c1` [1,3-dimethylbenzene] + C[N+]1(CCCO)CCOCC1.O=S(=O)([N-]S(=O)(=O)C(F)(F)F)C(F)(F)F: the activity coefficient is, setting by setting: (318.15 K) 6.44 ± 0.44; (328.15 K) 6.55 ± 0.45; (338.15 K) 6.64 ± 0.45; (348.15 K) 6.73 ± 0.46; (358.15 K) 6.85 ± 0.47; (368.15 K) 6.92 ± 0.47.

With `Cc1ccc(C)cc1` [1,4-dimethylbenzene] + C[N+]1(CCCO)CCOCC1.O=S(=O)([N-]S(=O)(=O)C(F)(F)F)C(F)(F)F, the activity coefficient was found to be 6.65 ± 0.45 (318.15 K); 6.7 ± 0.5 (328.15 K); 6.74 ± 0.46 (338.15 K); 6.78 ± 0.46 (348.15 K); 6.79 ± 0.46 (358.15 K); 6.84 ± 0.47 (368.15 K).

Consider `C1COCCO1` [1,4-dioxane] + C[N+]1(CCCO)CCOCC1.O=S(=O)([N-]S(=O)(=O)C(F)(F)F)C(F)(F)F, for which the activity coefficient by setting is: (318.15 K) 0.6 ± 0.042; (328.15 K) 0.653 ± 0.045; (338.15 K) 0.709 ± 0.047; (348.15 K) 0.758 ± 0.05; (358.15 K) 0.811 ± 0.052; (368.15 K) 0.859 ± 0.055.

Consider `C=CCCCCCCCC` [1-decene] + C[N+]1(CCCO)CCOCC1.O=S(=O)([N-]S(=O)(=O)C(F)(F)F)C(F)(F)F, for which the activity coefficient is, setting by setting: (318.15 K) 307 ± 21; (328.15 K) 269 ± 18; (338.15 K) 243 ± 17; (348.15 K) 218 ± 15; (358.15 K) 194 ± 13; (368.15 K) 176 ± 12.

`C=CCCCCC` [1-heptene] + C[N+]1(CCCO)CCOCC1.O=S(=O)([N-]S(=O)(=O)C(F)(F)F)C(F)(F)F: the activity coefficient runs as follows: (318.15 K) 86.6 ± 5.9; (328.15 K) 75.8 ± 5.2; (338.15 K) 69.3 ± 4.7; (348.15 K) 62.2 ± 4.3; (358.15 K) 55.7 ± 3.8; (368.15 K) 51.1 ± 3.5.

`C#CCCCCC` [1-heptyne] + C[N+]1(CCCO)CCOCC1.O=S(=O)([N-]S(=O)(=O)C(F)(F)F)C(F)(F)F: the activity coefficient by setting is: (318.15 K) 20 ± 1.4; (328.15 K) 19.2 ± 1.3; (338.15 K) 18.4 ± 1.3; (348.15 K) 17.6 ± 1.2; (358.15 K) 16.9 ± 1.2; (368.15 K) 16.3 ± 1.1.

For the compound `C#CCCCC` [1-hexyne] + C[N+]1(CCCO)CCOCC1.O=S(=O)([N-]S(=O)(=O)C(F)(F)F)C(F)(F)F, the activity coefficient was 12.5 ± 0.9 (318.15 K); 11.9 ± 0.8 (328.15 K); 11.6 ± 0.8 (338.15 K); 11.2 ± 0.8 (348.15 K); 10.7 ± 0.7 (358.15 K); 10.4 ± 0.7 (368.15 K).

Take `CCC[N+](=O)[O-]` [1-nitropropane] + C[N+]1(CCCO)CCOCC1.O=S(=O)([N-]S(=O)(=O)C(F)(F)F)C(F)(F)F: the activity coefficient by setting is: (318.15 K) 1.24 ± 0.08; (328.15 K) 1.26 ± 0.08; (338.15 K) 1.28 ± 0.08; (348.15 K) 1.3 ± 0.08; (358.15 K) 1.32 ± 0.09; (368.15 K) 1.34 ± 0.09.

As for `C#CCCCCCC` [1-octyne] + C[N+]1(CCCO)CCOCC1.O=S(=O)([N-]S(=O)(=O)C(F)(F)F)C(F)(F)F, the activity coefficient runs as follows: (318.15 K) 33 ± 2.3; (328.15 K) 31.3 ± 2.1; (338.15 K) 29.6 ± 2; (348.15 K) 28 ± 1.9; (358.15 K) 26.7 ± 1.8; (368.15 K) 25.5 ± 1.7.

`C=CCCC` [1-pentene] + C[N+]1(CCCO)CCOCC1.O=S(=O)([N-]S(=O)(=O)C(F)(F)F)C(F)(F)F: the activity coefficient was 64.5 ± 4.4 (298.15 K), 49.4 ± 3.4 (308.15 K), 38.3 ± 2.6 (318.15 K) and 30.6 ± 2.1 (328.15 K).

For `C#CCCC` [1-pentyne] + C[N+]1(CCCO)CCOCC1.O=S(=O)([N-]S(=O)(=O)C(F)(F)F)C(F)(F)F, the activity coefficient (318.15 K) was determined as 7.77 ± 0.53; the activity coefficient (328.15 K) was found to be 7.48 ± 0.51; the activity coefficient (338.15 K) stood at 7.24 ± 0.49; the activity coefficient (348.15 K) stood at 6.99 ± 0.48; the activity coefficient (358.15 K) is 6.79 ± 0.46; the activity coefficient (368.15 K) was found to be 6.63 ± 0.45.

Regarding `CC(C)CC(C)(C)C` [2,2,4-trimethylpentane] + C[N+]1(CCCO)CCOCC1.O=S(=O)([N-]S(=O)(=O)C(F)(F)F)C(F)(F)F, the activity coefficient by setting is: (318.15 K) 272 ± 19; (328.15 K) 226 ± 16; (338.15 K) 191 ± 13; (348.15 K) 165 ± 11; (358.15 K) 140 ± 10; (368.15 K) 125 ± 9.

With `CCOC(C)(C)C` [2-ethoxy-2-methylpropane] + C[N+]1(CCCO)CCOCC1.O=S(=O)([N-]S(=O)(=O)C(F)(F)F)C(F)(F)F, the activity coefficient (318.15 K) was determined as 16.1 ± 1.1; the activity coefficient (328.15 K) was determined as 15.8 ± 1.1; the activity coefficient (338.15 K) worked out at 15.6 ± 1.1; the activity coefficient (348.15 K) turned out to be 15.2 ± 1; the activity coefficient (358.15 K) was 15 ± 1; the activity coefficient (368.15 K) amounted to 14.8 ± 1.

In the case of `CCC(C)(C)OC` [2-methoxy-2-methylbutane] + C[N+]1(CCCO)CCOCC1.O=S(=O)([N-]S(=O)(=O)C(F)(F)F)C(F)(F)F, the activity coefficient is, setting by setting: (318.15 K) 8.7 ± 0.59; (328.15 K) 8.75 ± 0.6; (338.15 K) 8.8 ± 0.6; (348.15 K) 8.86 ± 0.6; (358.15 K) 8.89 ± 0.61; (368.15 K) 8.93 ± 0.61.

As for `COC(C)(C)C` [2-methoxy-2-methylpropane] + C[N+]1(CCCO)CCOCC1.O=S(=O)([N-]S(=O)(=O)C(F)(F)F)C(F)(F)F, the activity coefficient was found to be 4.94 ± 0.34 (318.15 K); 5.07 ± 0.35 (328.15 K); 5.22 ± 0.36 (338.15 K); 5.35 ± 0.36 (348.15 K); 5.45 ± 0.37 (358.15 K); 5.58 ± 0.38 (368.15 K).

On to `CC(C)CO` [2-methyl-1-propanol] + C[N+]1(CCCO)CCOCC1.O=S(=O)([N-]S(=O)(=O)C(F)(F)F)C(F)(F)F, for which the activity coefficient reads like this: (318.15 K) 3.25 ± 0.22; (328.15 K) 3.08 ± 0.21; (338.15 K) 2.94 ± 0.2; (348.15 K) 2.78 ± 0.19; (358.15 K) 2.65 ± 0.18; (368.15 K) 2.54 ± 0.17.

In the case of `CC(C)(C)O` [2-methylpropan-2-ol] + C[N+]1(CCCO)CCOCC1.O=S(=O)([N-]S(=O)(=O)C(F)(F)F)C(F)(F)F, the activity coefficient reads like this: (318.15 K) 2.09 ± 0.14; (328.15 K) 2.06 ± 0.14; (338.15 K) 2.03 ± 0.14; (348.15 K) 2 ± 0.14; (358.15 K) 1.97 ± 0.13; (368.15 K) 1.95 ± 0.13.

Regarding `CCC(C)CC` [3-methylpentane] + C[N+]1(CCCO)CCOCC1.O=S(=O)([N-]S(=O)(=O)C(F)(F)F)C(F)(F)F, the activity coefficient runs as follows: (298.15 K) 273 ± 19; (308.15 K) 201 ± 14; (318.15 K) 152 ± 10.

Turning to `C=C(C)c1ccccc1` [(1-methylethenyl)benzene] + C[N+]1(CCCO)CCOCC1.O=S(=O)([N-]S(=O)(=O)C(F)(F)F)C(F)(F)F, the activity coefficient by setting is: (318.15 K) 5.97 ± 0.41; (328.15 K) 6.12 ± 0.42; (338.15 K) 6.28 ± 0.43; (348.15 K) 6.41 ± 0.44; (358.15 K) 6.55 ± 0.45; (368.15 K) 6.65 ± 0.45.
